Series [1] concerns malaria mosquito (Anopheles gambiae). Briefly: Five-minute exposure bioassay, WHO Adult Mosquito Susceptibility Test Kit, treated filter paper. It is filed as in vivo. The note with it: for KT 50 / KT 95 / % knock down after 10′ / % knock down after 15′ / % knock down after 20′ / % knock down after 25′ / % knock down after 30′ / % knock down after 45′ / % knock down after 60′ / % mortality 1 d: Table 80, filter paper (mg/m^2); for % mortality 1 d: mortality 24 hours post exposure; for % knock down after 5′: Table 80, technical sample on filter paper (mg/m^2). On the procedure: The bioassays were carried out using the WHO Adult Mosquito Susceptibility Test Kit, (WHO/VBC 81.805, 1981) with plastic cylinders (4.5 cm diameter, 12 cm height). All bioassays were done using preferably female sugar fed Anopheles gambiae mosquitoes. Knock down was recorded after at 5, 10, 15, 20, 25, 30, 45 and 60 minutes, when the mosquitoes were supplied with a 5% sugar water source for 24 hours. Mortality was recorded 24 hours post exposure. Each test consisted of three replicates from which the mean values were calculated. The insecticides (all technical grades) were applied as 2 ml acetone solutions onto filter papers (12 cm×15 cm).

For series [2], the system named is tropical house mosquito Culex quinquefasciatus (adults, 3 days old). Briefly: Efficacy of formulations on surfaces (glazed/unglazed tiles, plywood), ten 3 day old mosquitoes, 3 min exposure. It is filed as in vivo. The note with it: Culex quinquefasciatus, 3 min exposure, mostly 0.1% bendiocarb + 1% additive on glazed tiles. The procedure:
The ingredients were diluted in acetone to give a concentration which corresponds to the desired quantity of a.i./m^2. A 1 ml quantity of the solution was applied by pipette onto the 15 cm×15 cm surfaces without treating the outer edge of 1 cm.
Ten 3 day old Culex quinquefasciatus mosquitoes were exposed to each treatment for 3 minutes under a perforated petri dish, and then a clean untreated white paper index card was moved between treated surface and petri dish. A water-soaked cotton pad was applied immediately after.
Each test consisted of three replicates (three batches of ten mosquitoes were exposed for three minutes to the same surface, each one hour later), of which the mean values are calculated.
The test insects were Culex quinquefasciatus (adults, 3 days old). The compositions were evaluated for their ability to provide effective knock down after 3, 9, 15, and 30 minutes, 1, 2, 3, 4 and 24 hours (mortality). The experiments were performed in triplicate on glazed tile, but not repeated on wood.
Test Insects are Culex quinquefasciatus (adults, 3 days old). The Application provides the technical compounds were dissolved in acetone and applied as 1 ml solutions onto glazed tiles (15 cm×15 cm). An evaluation is provided at knock down after 3, 9, 15, and 30 minutes, 1, 2, 3, 4 and 24 hours (mortality). There are 3 replicates.
Test Insects: Culex quinquefasciatus (adults, 3 days old)
Application: The technical compounds were dissolved in acetone and applied as 1 ml solutions onto glazed tiles (15 cm×15 cm).
Evaluation: Knock down after 3, 9, 15, and 30 minutes, 1, 2, 3, 4 and 24 hours (mortality) […]
Application: The active ingredients were applied as 1 ml acetone solutions onto glazed tiles (15 cm×15 cm) […]
For the mosquitoes, the USDA Petri Dish Method is used. Ten 3 day old Culex quinquefasciatus mosquitoes are exposed to each treatment for 3 minutes under a perforated petri dish and then a clean untreated white paper index card is moved between treated surface and petri dish. A water-soaked cotton pad is applied immediately after. […]

Entries after “also recorded” stand apart in the source; their conditions may differ.

`CNC(=O)Oc1cccc2c1OC(C)(C)O2` [5 mg Bendiocarb]: in series [1], the “KT 50” value was above 60 min, the “KT 95” value was above 60 min, the “% knock down after 10′” value is on record as 6% and the “% knock down after 15′” value turned out to be 6%. For the same molecule, in series [1], the “% knock down after 20′” value is listed as 6%, the “% knock down after 25′” value came to 6%, the “% knock down after 30′” value is 6% and the “% knock down after 45′” value is listed as 6%. In addition, in series [1], the “% knock down after 60′” value came out at 6%, the “% mortality 1 d” value stood at 12% and the “% knock down after 5′” value was determined as 6%.
Take `CC1(C)[C@H](C(=O)O[C@H](C#N)c2cccc(Oc3ccccc3)c2)[C@@H]1C=C(Br)Br` [5 mg DTM]: in series [1], the “KT 50” value was above 60 min, the “KT 95” value was above 60 min, the “% knock down after 10′” value worked out at 6% and the “% knock down after 15′” value came out at 4%. Also, in series [1], the “% knock down after 20′” value is reported as 6%, the “% knock down after 25′” value was 6%, the “% knock down after 30′” value is 7% and the “% knock down after 45′” value is on record as 15%. Also, in series [1], the “% knock down after 60′” value was found to be 19%, the “% mortality 1 d” value turned out to be 13% and the “% knock down after 5′” value stood at 6%.
As for `CNC(=O)Oc1cccc2c1OC(C)(C)O2` [10 mg Bendiocarb], in series [1], the “KT 50” value is above 60 min, the “KT 95” value was above 60 min, the “% knock down after 10′” value amounted to 2% and the “% knock down after 15′” value amounted to 2%. Also, in series [1], the “% knock down after 20′” value is on record as 27%, the “% knock down after 25′” value was 2%, the “% knock down after 30′” value was found to be 2% and the “% knock down after 45′” value was 2%. For the same molecule, in series [1], the “% knock down after 60′” value turned out to be 2%, the “% mortality 1 d” value came out at 9% and the “% knock down after 5′” value turned out to be 2%.
With `CC1(C)[C@H](C(=O)O[C@H](C#N)c2cccc(Oc3ccccc3)c2)[C@@H]1C=C(Br)Br` [10 mg DTM], in series [1], the “KT 50” value is above 60 min, the “KT 95” value was above 60 min, the “% knock down after 10′” value stood at 2% and the “% knock down after 15′” value worked out at 2%. In series [1], the “% knock down after 20′” value was determined as 2%, the “% knock down after 25′” value amounted to 5%, the “% knock down after 30′” value was found to be 9% and the “% knock down after 45′” value was 18%. In series [1], the “% knock down after 60′” value was 26%, the “% mortality 1 d” value was 17% and the “% knock down after 5′” value is 0%.
As to `CNC(=O)Oc1cccc2c1OC(C)(C)O2` [20 mg Bendiocarb], in series [1], the “KT 50” value was above 60 min, the “KT 95” value is above 60 min, the “% knock down after 10′” value worked out at 6% and the “% knock down after 15′” value is 4%. In addition, in series [1], the “% knock down after 20′” value stood at 6%, the “% knock down after 25′” value came to 13%, the “% knock down after 30′” value turned out to be 13% and the “% knock down after 45′” value is listed as 20%. Also, in series [1], the “% knock down after 60′” value came to 21%, the “% mortality 1 d” value came to 27% and the “% knock down after 5′” value is 3%.
Regarding `CC1(C)C(C=C(Br)Br)C1C(=O)OC(C#N)c1cccc(Oc2ccccc2)c1` (stereo not shown) [20 mg DTM], in series [1], the “KT 50” value is 21 min, the “KT 95” value is above 60 min, the “% knock down after 10′” value came to 23% and the “% knock down after 15′” value is 39%. In addition, in series [1], the “% knock down after 20′” value was 45%, the “% knock down after 25′” value turned out to be 52%, the “% knock down after 30′” value is 66% and the “% knock down after 45′” value was determined as 79%. For the same molecule, in series [1], the “% knock down after 60′” value was determined as 86%, the “% mortality 1 d” value is 75% and the “% knock down after 5′” value is listed as 9%.
With `COC(=O)CCCCCCCCC(=O)OC` [Derivative 1, Dimethyl sebacate], the “efficacy enhancement of the insecticide by the additive (summary in words)” value (shortened to “efficacy enhancement of the insecticide”) in series [2] (details as worded) is given as “acted weaker in both tests”; in series [2] (details as worded, listed as Dimethyl sebacate), “no efficacy enhancement”.
As for `O=C(O)CCCCCCCCC(=O)O` [Derivative 2, Sebacic acid], the “efficacy enhancement of the insecticide” value in series [2] (details as worded, listed as Sebacic acid) is recorded as “no efficacy enhancement”; in series [2] (details as worded, listed as derivative 2) it was “acted weaker in both tests”.
For the molecule `O=C(CCCCCCCCC(=O)OCc1ccccc1)OCc1ccccc1` [Derivative 3, Sebacic acid dibenzyl ester], the “efficacy enhancement of the insecticide” value is on record as “superior to Compound A (first test) or equal (second test)” in series [2] (details as worded) and “superior to Compound A; also recorded: improved markedly the efficacy of bendiocarb” in series [2] (details as worded, listed as Sebacic acid dibenzyl ester).
For `O=C(CCCCCCCCC(=O)ON1C(=O)CCC1=O)ON1C(=O)CCC1=O` [Derivative 4, Sebacic acid-bis-(N-succinimidyl)ester], the “efficacy enhancement of the insecticide” value in series [2] (details as worded) is recorded as “weaker as Compound A in both tests”; in series [2] (details as worded, listed as Sebacic acid-bis-(N-succinimidyl)ester) it was “equivalent to Compound A”.
Turning to `CCCCCCCCON1C(C)(C)CC(OC(=O)CCCCCCCCC(=O)OC2CC(C)(C)N(OCCCCCCCC)C(C)(C)C2)CC1(C)C` [Derivative 5, Bis(1-octyloxy-2,2,6,6-tetramethyl-4-piperidyl)sebacate], the “efficacy enhancement of the insecticide” value was “weaker as Compound A in both tests” in series [2] (details as worded) and “inhibited the efficacy of bendiocarb” in series [2] (details as worded, listed as bis(1-octyloxy-2,2,6,6-tetramethyl-4-piperidyl)sebacate).
On to `CC1(C)CC(OC(=O)CCCCCCCCC(=O)OC2CC(C)(C)NC(C)(C)C2)CC(C)(C)N1` [Derivative 6, Bis(2,2,6,6-tetramethyl-4-piperidyl)sebacate], for which the “efficacy enhancement of the insecticide” value in series [2] (details as worded) is “inhibited the efficacy of bendiocarb in both tests”; in series [2] (details as worded, listed as bis(2,2,6,6-tetramethyl-4-piperidyl)sebacate), “inhibited the efficacy of bendiocarb”.
Take `CC1(C)CC(O)CC(C)(C)N1` [Derivative 7, 4-Hydroxy-2,2,6,6-tetramethylpiperidine]: the “efficacy enhancement of the insecticide” value in series [2] (details as worded) is “superior to Compound A in the first test and inferior in the second test”.
With `CN1C(C)(C)CC(O)CC1(C)C` [Derivative 8, 1,2,2,6,6-Pentamethyl-4-piperidinol], the “efficacy enhancement of the insecticide” value in series [2] (details as worded) is reported as “acted weaker in both tests”; in series [2] (details as worded, listed as 1,2,2,6,6-Pentamethyl-4-piperidinol), “no efficacy enhancement”.
For the molecule `CC1(C)CC(O)CC(C)(C)N1[O]` [Derivative 9, 4-Hydroxy-2,2,6,6 tetramethylpiperidin-1-oxyl], the “efficacy enhancement of the insecticide” value is recorded as “acted weaker in both tests” in series [2] and “inhibited the efficacy of bendiocarb” in series [2] (listed as 4-Hydroxy-2,2,6,6 tetramethylpiperidin-1-oxyl (free radical)).
On to `O=C1O[C@H]([C@@H](O)CO)C(O)=C1O` [ascorbic acid], for which the “efficacy enhancement of the insecticide” value in series [2] (details as worded) is given as “complete decrease of efficacy”.
For `O=C(O)CC(O)(CC(=O)O)C(=O)O` [citric acid], the “efficacy enhancement of the insecticide” value in series [2] (details as worded) is recorded as “better efficacy of bendiocarb alone”.

For the origin of these results see patent US9028856B2, “Synergistic pesticide compositions” (priority 2008, dated 2015).
